In US8759334B2, “Compounds useful for the treatment of metabolic and inflammatory diseases” (Galapagos NV, priority 2011, dated 2014) one finds IC50 data, which are given here for 26 molecules.

The target in this test is T1, GPR43 (Homo sapiens, UniProt O15552).
T1 construct: expressed in transfected cells
T1 sequence (O15552 1-330): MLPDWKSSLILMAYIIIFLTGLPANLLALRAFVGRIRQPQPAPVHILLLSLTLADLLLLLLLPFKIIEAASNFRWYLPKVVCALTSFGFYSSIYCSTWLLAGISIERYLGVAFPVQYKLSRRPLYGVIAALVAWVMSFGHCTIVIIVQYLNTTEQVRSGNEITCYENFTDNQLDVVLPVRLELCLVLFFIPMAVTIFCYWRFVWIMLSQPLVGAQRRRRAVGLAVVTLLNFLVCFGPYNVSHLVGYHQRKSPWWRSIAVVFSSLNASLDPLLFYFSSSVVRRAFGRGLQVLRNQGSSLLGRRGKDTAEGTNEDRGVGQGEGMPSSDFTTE
Briefly: Calcium mobilization assay with probenecid. Format: cell-based. As to conditions: GPR43 stably expressing cells; triggered with sodium acetate at EC80; 2.5 mM probenecid; read-out: GPR43 assay with probenicid IC50. The method, then: The following assay can be used for determination of GPR43 activation. The assay measures intracellular calcium release induced by activation of GPR43. On day 1, GPR43 stably expressing cells were detached with mild trypsinization (Trypsin, 0.25% with EDTA 4Na, 5× diluted in PBS) centrifuged at 1000 rpm for 5 min and resuspended at 6.000 cells/25 […] medium (DMEM supplemented with 10% FBS, 10 μg/mL puromycin and 1% Pen/Strep). The cells were distributed in poly-D-lysine coated 384 well plates (black with clear bottom, 25 μL/well) and incubated overnight at 37° C. 10% CO2.
On day 2, 25 μL of a fluorescent Ca^2+ indicator (Calcium 4 assay; Molecular Devices) supplemented with 2.5 mM probenecid was added on top of the cells and incubated for 2 h at 37° C. Subsequently, compounds at increasing concentration (10 μL/well) were added to the plate and incubated for 15 min at 37° C.
To measure agonist activity of the compounds, compound was added to the well and the Ca^2+-flux was measured simultaneously to the […] of compound.

Bounds are passed on as bounds.

As for `Cc1cc(C)cc(CC(=O)N2CCC2(C)C(=O)N(CCCN2CCCC2=O)Cc2ccc(Cl)cc2)c1` (centres unmarked) [Compound 149, 1-[2-(3,5-Dimethyl-phenyl)-acetyl]-2-methyl-azetidine-2-carboxylic acid (4-chloro-benzyl)-[3-(2-oxo-pyrrolidin-1-yl)-propyl]-amide], the IC50 was > 1000 nM.

For the molecule `COC(=O)CCN(Cc1ccc(Cl)cc1)C(=O)C1(C)CCN1C(=O)Cc1coc2ccccc12` (centres unmarked) [Compound 150, 3-[[1-(2-Benzofuran-3-yl-acetyl)-2-methyl-azetidine-2-carbonyl]-(4-chloro-benzyl)-amino]-propionic acid methyl ester], the half-inhibitory concentration (IC50) was in the range of 101 to 500 nM. With `COC(=O)CCN(Cc1ccc(Cl)cc1)C(=O)C1(C)CCN1C(=O)c1csc2ccccc12` (centres unmarked) [Compound 151, 3-[[1-(Benzo[b]thiophene-3-carbonyl)-2-methyl-azetidine-2-carbonyl]-(4-chloro-benzyl)-amino]-propionic acid methyl ester] the figure was 101 to 500 nM; with `CCOC(=O)CCCN(Cc1ccc2cn[nH]c2c1)C(=O)C1(C)CCN1C(=O)Cc1coc2ccccc12` (centres unmarked) [Compound 152, 4-[[1-(2-Benzofuran-3-yl-acetyl)-2-methyl-azetidine-2-carbonyl]-(1H-indazol-6-ylmethyl)-amino]-butyric acid ethyl ester], 101 to 500 nM. For `CCOC(=O)CCCN(Cc1ccc2cn[nH]c2c1)C(=O)C1(C)CCN1C(=O)c1csc2ccccc12` (centres unmarked) [Compound 153, 4-[[1-(Benzo[b]thiophene-3-carbonyl)-2-methyl-azetidine-2-carbonyl]-(1H-indazol-6-ylmethyl)-amino]-butyric acid ethyl ester] the value was 101 to 500 nM; for `CC1(C(=O)N(CCC(=O)O)Cc2ccc(Cl)cc2)CCN1C(=O)Cc1coc2ccccc12` (centres unmarked) [Compound 154, 3-[[1-(2-Benzofuran-3-yl-acetyl)-2-methyl-azetidine-2-carbonyl]-(4-chloro-benzyl)-amino]-propionic acid], > 1000 nM. With `CC1(C(=O)N(CCCC(=O)O)Cc2ccc3cn[nH]c3c2)CCN1C(=O)Cc1coc2ccccc12` (centres unmarked) [Compound 156, 4-[[1-(2-Benzofuran-3-yl-acetyl)-2-methyl-azetidine-2-carbonyl]-(1H-indazol-6-ylmethyl)-amino]-butyric acid] the figure was 101 to 500 nM; with `CC1(C(=O)N(CCCC(N)=O)Cc2ccc(Cl)cc2)CCN1C(=O)c1csc2ccccc12` (centres unmarked) [Compound 158, 1-(Benzo[b]thiophene-3-carbonyl)-2-methyl-azetidine-2-carboxylic acid (3-carbamoyl-propyl)-(4-chloro-benzyl)-amide], 101 to 500 nM; with `Cc1cc(C)cc(CC(=O)N2CCC2(C)C(=O)N(CCCC(=O)O)Cc2ccc(C(F)(F)F)cc2)c1` (centres unmarked) [Compound 159, 4-[{1-[2-(3,5-Dimethyl-phenyl)-acetyl]-2-methyl-azetidine-2-carbonyl}-(4-trifluoromethyl-benzyl)-amino]-butyric acid], 501 to 1000 nM. As to `CC1(C(=O)N(CCCC(=O)O)Cc2ccc(C(F)(F)F)cc2)CCN1C(=O)Cc1coc2ccccc12` (centres unmarked) [Compound 160, 4-[[1-(2-Benzofuran-3-yl-acetyl)-2-methyl-azetidine-2-carbonyl]-(4-trifluoromethyl-benzyl)-amino]-butyric acid], the IC50 fell in the range of 101 to 500 nM. Consider `Cc1cc(C)cc(CC(=O)N2CCC2(C)C(=O)N(CCCC(=O)O)Cc2cccc(Cl)c2)c1` (centres unmarked) [Compound 161, 4-((3-Chloro-benzyl)-{1-[2-(3,5-dimethyl-phenyl)-acetyl]-2-methyl-azetidine-2-carbonyl}-amino)-butyric acid], for which the half-maximal inhibitory concentration (IC50) is > 1000 nM.

For `Cc1cc(C)cc(CC(=O)N2CCC2(C)C(=O)N(CCCC(=O)O)Cc2ccc3ccoc3c2)c1` (centres unmarked) [Compound 162, 4-(Benzofuran-6-ylmethyl-{1-[2-(3,5-dimethyl-phenyl)-acetyl]-2-methyl-azetidine-2-carbonyl}-amino)-butyric acid], the half-inhibitory concentration (IC50) fell in the range of 501 to 1000 nM. For `CC1(C(=O)N(CCCC(=O)O)Cc2ccc3ccoc3c2)CCN1C(=O)c1csc2ccccc12` (centres unmarked) [Compound 163, 4-{[1-(Benzo[b]thiophene-3-carbonyl)-2-methyl-azetidine-2-carbonyl]-benzofuran-6-ylmethyl-amino}-butyric acid] the value was 101 to 500 nM. With `CC1(C(=O)N(CCCC(=O)O)Cc2ccc3ccoc3c2)CCN1C(=O)Cc1coc2ccccc12` (centres unmarked) [Compound 164, 4-{[1-(2-Benzofuran-3-yl-acetyl)-2-methyl-azetidine-2-carbonyl]-benzofuran-6-ylmethyl-amino}-butyric acid] the figure was 101 to 500 nM; with `CCOC(=O)CCCN(Cc1ccc(C(F)(F)F)cc1)C(=O)C1(C)CCN1C(=O)Cc1cc(C)cc(C)c1` (centres unmarked) [Compound 165, 4-[{1-[2-(3,5-Dimethyl-phenyl)-acetyl]-2-methyl-azetidine-2-carbonyl}-(4-trifluoromethyl-benzyl)-amino]-butyric acid ethyl ester], 501 to 1000 nM; with `CC1(C(=O)N(CCCC(N)=O)Cc2ccc(Cl)cc2)CCN1C(=O)Cc1coc2ccccc12` (centres unmarked) [Compound 166, 1-(2-Benzofuran-3-yl-acetyl)-2-methyl-azetidine-2-carboxylic acid (3-carbamoyl-propyl)-(4-chloro-benzyl)-amide], 101 to 500 nM. With `CCOC(=O)CCCN(Cc1ccc(C(F)(F)F)cc1)C(=O)C1(C)CCN1C(=O)Cc1coc2ccccc12` (centres unmarked) [Compound 167, 4-[[1-(2-Benzofuran-3-yl-acetyl)-2-methyl-azetidine-2-carbonyl]-(4-trifluoromethyl-benzyl)-amino]-butyric acid ethyl ester], the IC50 is > 1000 nM. For `COc1ccc(CNS(=O)(=O)CCCN(Cc2ccc(Cl)cc2)C(=O)C2(C)CCN2C(=O)Cc2cc(C)cc(C)c2)c(OC)c1` (centres unmarked) [Compound 168, 1-[2-(3,5-Dimethyl-phenyl)-acetyl]-2-methyl-azetidine-2-carboxylic acid (4-chloro-benzyl)-[3-(2,4-dimethoxy-benzylsulfamoyl)-propyl]-amide] the value was > 1000 nM; for `CC1(C(=O)N(CCC(=O)O)Cc2cccc(Cl)c2)CCN1C(=O)Cc1csc2ccccc12` (centres unmarked) [Compound 170, 3-[[1-(2-Benzo[b]thiophen-3-yl-acetyl)-2-methyl-azetidine-2-carbonyl]-(3-chloro-benzyl)-amino]-propionic acid], 101 to 500 nM. With `Cc1cc(C)cc(CC(=O)N2CCC2(C)C(=O)N(CCCS(N)(=O)=O)Cc2ccc(Cl)cc2)c1` (centres unmarked) [Compound 171, 1-[2-(3,5-Dimethyl-phenyl)-acetyl]-2-methyl-azetidine-2-carboxylic acid (4-chloro-benzyl)-(3-sulfamoyl-propyl)-amide] the figure was 101 to 500 nM; with `COC(=O)CCN(Cc1cccc(Cl)c1)C(=O)C1(C)CCN1C(=O)c1csc2ccccc12` (centres unmarked) [Compound 172, 3-[[1-(Benzo[b]thiophene-3-carbonyl)-2-methyl-azetidine-2-carbonyl]-(3-chloro-benzyl)-amino]-propionic acid methyl ester], 101 to 500 nM. With `COC(=O)CCN(Cc1cccc(Cl)c1)C(=O)C1(C)CCN1C(=O)Cc1csc2ccccc12` (centres unmarked) [Compound 173, 3-[[1-(2-Benzo[b]thiophen-3-yl-acetyl)-2-methyl-azetidine-2-carbonyl]-(3-chloro-benzyl)-amino]-propionic acid methyl ester] the figure was 101 to 500 nM; with `CNS(=O)(=O)CCCN(Cc1ccc(Cl)cc1)C(=O)C1(C)CCN1C(=O)Cc1cc(C)cc(C)c1` (centres unmarked) [Compound 174, 1-[2-(3,5-Dimethyl-phenyl)-acetyl]-2-methyl-azetidine-2-carboxylic acid (4-chloro-benzyl)-(3-methylsulfamoyl-propyl)-amide], 101 to 500 nM; with `COC(=O)CCN(Cc1ccc2cn[nH]c2c1)C(=O)C1(C)CCN1C(=O)Cc1csc2ccccc12` (centres unmarked) [Compound 175, 3-[[1-(2-Benzo[b]thiophen-3-yl-acetyl)-2-methyl-azetidine-2-carbonyl]-(1H-indazol-6-ylmethyl)-amino]-propionic acid methyl ester], 0.01 to 100 nM. For `CC1(C(=O)N(CCC(=O)O)Cc2ccc3cn[nH]c3c2)CCN1C(=O)Cc1csc2ccccc12` (centres unmarked) [Compound 176, 3-[[1-(2-Benzo[b]thiophen-3-yl-acetyl)-2-methyl-azetidine-2-carbonyl]-(1H-indazol-6-ylmethyl)-amino]-propionic acid], the half-inhibitory concentration (IC50) fell in the range of 101 to 500 nM. With `CC1(C(=O)N(CCCC(=O)O)Cc2ccn3ccnc3c2)CCN1C(=O)Cc1csc2ccccc12` (centres unmarked) [Compound 177, 4-{[1-(2-Benzo[b]thiophen-3-yl-acetyl)-2-methyl-azetidine-2-carbonyl]-imidazo[1,2-a]pyridin-7-ylmethyl-amino}-butyric acid] the figure was > 1000 nM.
